This is an account of results in patent US20240383908A1, “SYNTHESIS AND APPLICATION OF PHOSPHATASE DEGRADER” (HINOVA PHARMACEUTICALS INC., priority 2021, published 2024).

SMILES strings stand for the structures. Where a name gives a salt, the structure may show the parent alone. Bounds are passed on as bounds.

The target of test [1] is T1, SHP2 protein (Homo sapiens, UniProt Q06124).
T1 sequence (Q06124 1-593): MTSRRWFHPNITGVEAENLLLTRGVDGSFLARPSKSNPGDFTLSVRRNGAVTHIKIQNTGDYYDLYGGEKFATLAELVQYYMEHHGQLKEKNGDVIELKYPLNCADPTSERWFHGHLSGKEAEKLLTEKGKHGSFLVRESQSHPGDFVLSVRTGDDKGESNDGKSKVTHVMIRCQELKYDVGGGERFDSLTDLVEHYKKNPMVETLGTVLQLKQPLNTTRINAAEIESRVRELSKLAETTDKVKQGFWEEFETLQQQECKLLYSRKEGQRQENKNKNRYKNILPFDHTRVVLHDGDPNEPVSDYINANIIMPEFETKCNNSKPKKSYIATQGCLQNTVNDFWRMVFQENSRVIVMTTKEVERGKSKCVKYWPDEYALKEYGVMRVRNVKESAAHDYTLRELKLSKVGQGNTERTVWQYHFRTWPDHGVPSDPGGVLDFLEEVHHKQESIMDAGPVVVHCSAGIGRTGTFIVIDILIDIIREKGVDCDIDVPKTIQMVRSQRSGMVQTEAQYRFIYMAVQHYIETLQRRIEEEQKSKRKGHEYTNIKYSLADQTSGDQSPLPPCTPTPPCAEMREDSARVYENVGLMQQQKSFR
The test can be described thus: Degradation activity on SHP2 protein in MIA Paca-2 cells (Western blot, DC50). The format is cell-based. Details: endogenous in cells; host or cells: MIA Paca-2 cells. Particulars: read-out: Degradation activity for differenct cell lines MIA Paca-2 (DC50). A digest of the protocol:
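Cells were treated 24 h at 37 °C with compound (0.1–100 nM final, 0.1% DMSO). SHP2 was measured by Western blot with GAPDH as loading control, densitometry normalized to DMSO (100%). DC50, the concentration giving 50% degradation, came from a dose-response fit.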
For orientation: A western blot detects proteins with antibodies after separation by electrophoresis.

For test [2], the target named is T1, SHP2 protein. Briefly: Degradation activity on SHP2 protein in NCI-H358 cells (Western blot, DC50). Particulars: read-out: Degradation activity for differenct cell lines NCI-H358 (DC50). The format is cell-based. Further details: endogenous in cells. How it is done:
(1) MV-411 cells were cultured in the cell culture medium, and then well-growing cells were selected and inoculated in a 12-well plate, with 1 mL/well and 1×10^6 cells/well. The plate was incubated overnight in a 5% CO2 cell incubator at 37° C.
(2) 10 mM storage solution of each drug was prepared using dimethylsulfoxide (DMSO). The stock solution was diluted gradually with DMSO before use, and then 1 μL of the compound solution was added to the cell culture well (to ensure that the DMSO concentration in the culture system was […]), so that the final drug concentration is 100 nM, 10 nM, 3 nM, 1 nM, 0.3 nM, and 0.1 nM. Two wells were set for each concentration. The plate was gently shaken and mixed. Additionally, negative control wells (containing an equal amount of DMSO) and positive control wells were included.
(3) After 24 hours of cultivation, the cells were lysed using RIPA cell lysate, and the proteins were extracted. The protein concentration was measured using a BCA assay kit. 5× concentrated protein buffer was loaded, heated at 100° C. for 5 min, and then the sample was stored at −20° C.
(4) For each well, 30 μg of protein was loaded to polyacrylamide gel for electrophoresis.
(5) The protein was transferred from polyacrylamide gel to PVDF membrane, and sealed at room temperature with 5% skimmed milk for 1 h, which was then incubated with the primary antibodies (Anti-SHP2 rabbit mAb and Anti-GAPDH rabbit mAb) at 4° C. overnight. The membrane was washed three times with TBST solution, 10 minutes for each time. After that, the membrane was incubated with the secondary antibodies (horseradish peroxidase labeled goat anti-rabbit IgG) at room temperature for 2 h, and then washed three times with TBST solution, 10 minutes for each time, followed by exposure.
(6) The images were analyzed with Image J grayscale, and the degradation ratio of protein bands in the test group was calculated, based on the negative control group (DMSO) (100%).
(7) Using the Dose-response-inhibition equation in the data processing software GraphPad Prism 8, the DC50 value was obtained (which represents the drug concentration corresponding to 50% degradation of the target protein).
Using similar methods and different cell lines, the degradation activity of the compound according to the present invention on SHP2 protein of different cell lines was tested under suitable culture conditions.

In general, DC50 refers to the concentration giving 50% degradation. For `Cc1ncsc1-c1ccc([C@H](C)NC(=O)[C@@H]2C[C@@H](O)CN2C(=O)[C@@H](NC(=O)c2cnc(N3CCN(CCCCC(=O)Nc4cccc(Sc5cnc(N6CCC(C)(N)CC6)cn5)c4)CC3)nc2)C(C)(C)C)cc1` [Compound 221], the DC50 on SHP2 protein [1] and on SHP2 protein [2] was less than 100 nM throughout.

For `Cc1cc(C(=O)NCc2ccc3c(c2)CN(C2CCC(=O)NC2=O)C3=O)ncc1C1=CCN(C2CCN(c3ccc(C(=O)Nc4cccc(Sc5cnc(N6CCC7(CC6)CO[C@@H](C)[C@H]7N)cn5)c4)cc3F)CC2)CC1` (stereo partly drawn) [Compound 465], the DC50 on SHP2 protein [1] and on SHP2 protein [2] was less than 100 nM throughout.

`CC1CC(c2ccc(C(=O)NCc3ccc4c(c3)CN(C3CCC(=O)NC3=O)C4=O)nn2)=CCN1CCCCCCCCC(=O)Nc1cccc(Sc2cnc(N3CCC(C)(N)CC3)cn2)c1` (stereo not drawn) [Compound 228]: the DC50 on SHP2 protein [1] and at SHP2 protein [2] was less than 100 nM each time.

On to `CC1(N)CCN(c2cnc(Sc3cccc(NC(=O)CCCCCCCCN4C5CCC4CC(c4ccc(C(=O)NCc6ccc7c(c6)CN(C6CCC(=O)NC6=O)C7=O)nn4)C5)c3)cn2)CC1` (single isomer, unassigned) [Compound 232], for which the DC50 at SHP2 protein [1] and at SHP2 protein [2] was less than 100 nM throughout.

As for `CC1CN(CCCCCCCCC(=O)Nc2cccc(Sc3cnc(N4CCC(C)(N)CC4)cn3)c2)CC=C1c1ccc(C(=O)NC(C)c2ccc3c(c2)CN(C2CCC(=O)NC2=O)C3=O)nc1` (stereo not drawn) [Compound 242], the DC50 on SHP2 protein [1] and at SHP2 protein [2] was less than 100 nM throughout.

For the compound `Cc1cc(C(=O)Nc2cccc(Sc3cnc(N4CCC(C)(N)CC4)cn3)c2)ccc1N1CCC(N2CC=C(c3cnc(C(=O)NCc4ccc5c(c4)CN(C4CCC(=O)NC4=O)C5=O)c(F)c3)CC2)CC1` (stereo not drawn) [Compound 439], the DC50 at SHP2 protein [1] and on SHP2 protein [2] was less than 100 nM each time.

In the case of `Cc1cc(N2CCC(N3CC=C(c4cnc(C(=O)NCc5ccc6c(c5)CN(C5CCC(=O)NC5=O)C6=O)c(Cl)c4)CC3)CC2)ccc1C(=O)Nc1cccc(Sc2cnc(N3CCC(C)(N)CC3)cn2)c1` (stereo not drawn) [Compound 443], the DC50 at SHP2 protein [1] was 100 to 1000 nM; on SHP2 protein [2], less than 100 nM.

With `CC1(N)CCN(c2cnc(Sc3cccc(NC(=O)c4ncc(N5CCC(N6CCN(c7ccc(C(=O)NCc8ccc9c(c8)CN(C8CCC(=O)NC8=O)C9=O)nc7)CC6)CC5)cn4)c3)cn2)CC1` (stereo not drawn) [Compound 451], the DC50 at SHP2 protein [1] and on SHP2 protein [2] was less than 100 nM throughout.

On to `CC1(N)CCN(c2cnc(Sc3cccc(NC(=O)c4ccc5c(c4)CC(N4CCN(c6ccc(C(=O)NCc7ccc8c(c7)CN(C7CCC(=O)NC7=O)C8=O)nn6)CC4)C5)c3)cn2)CC1` (stereo not drawn) [Compound 344, […]], for which the results for the DC50 on SHP2 protein [1] and at SHP2 protein [2] were less than 100 nM and greater than 1000 nM, respectively.

As to `CCC1(N)CCN(c2cnc(Sc3cccc(NC(=O)CCCCCCCCN4CCN(c5ccc(C(=O)NCc6ccc7c(c6)CN(C6CCC(=O)NC6=O)C7=O)nn5)CC4C(F)(F)F)c3)cn2)CC1` (stereo not drawn) [Compound 226], the DC50 at SHP2 protein [1] and on SHP2 protein [2] was less than 100 nM in each case.

For `CC1(N)CCN(c2cnc(Sc3cccc(NCc4ccc(CN5CCN(c6ccc(C(=O)NCc7ccc8c(c7)CN(C7CCC(=O)NC7=O)C8=O)nn6)CC5)cc4)c3)cn2)CC1` (stereo not drawn) [Compound 247], the figures for the DC50 on SHP2 protein [1] and at SHP2 protein [2] were greater than 1000 nM and 100 to 1000 nM, respectively.

As for `CC1(N)CCN(c2cnc(Sc3cccc(NC(=O)CCCCCCCCN4C[C@H]5C[C@@H]4CN5c4ccc(C(=O)NCc5ccc6c(c5)CN(C5CCC(=O)NC5=O)C6=O)nn4)c3)cn2)CC1` (stereo partly drawn) [Compound 238], the DC50 at SHP2 protein [1] and at SHP2 protein [2] was less than 100 nM in each case.

Take `C[C@@H]1CN(CCCCCCCCC(=O)Nc2cccc(Sc3cnc(N4CCC(C)(N)CC4)cn3)c2)CCN1c1ccc(C(=O)NCc2ccc3c(c2)CN(C2CCC(=O)NC2=O)C3=O)nn1` (stereo partly drawn) [Compound 239]: the DC50 at SHP2 protein [1] and on SHP2 protein [2] was less than 100 nM each time.

Take `CC1(N)CCN(c2cnc(Sc3cccc(NC(=O)c4ccc(N5CCC(N6CC=C(c7cnc(C(=O)NCc8ccc9c(c8)CN(C8CCC(=O)NC8=O)C9=O)c(Cl)c7)CC6)CC5)cc4)c3)cn2)CC1` (stereo not drawn) [Compound 400]: the DC50 at SHP2 protein [1] and on SHP2 protein [2] was less than 100 nM each time.

As for `CC1(N)CCN(c2cnc(Sc3cccc(NC(=O)c4ccc(N5CCC(N6CCN(c7ccc(C(=O)NCc8ccc9c(c8)CN(C8CCC(=O)NC8=O)C9=O)nn7)CC6)CC5)c(F)c4)c3)cn2)CC1` (stereo not drawn) [Compound 397], the DC50 at SHP2 protein [1] and on SHP2 protein [2] was less than 100 nM in each case.

On to `CC1(N)CCN(c2cnc(Sc3cccc(NC(=O)c4ccc(-c5ccc(N6CCN(c7ccc(C(=O)NCc8ccc9c(c8)CN(C8CCC(=O)NC8=O)C9=O)nc7)CC6)cc5)cc4)c3)cn2)CC1` (stereo not drawn) [Compound 343, 5-(4-(4′-((3-(([…])thio)phenyl)carbamoyl)-[1,1′-diphenyl]-4-yl)piperazin-1-yl)-N-((2-(2,6-dioxopiperidin-3-yl)-1-oxoisoindolin-5-yl)methyl)pyridinecarboxamide], for which the values for the DC50 on SHP2 protein [1] and on SHP2 protein [2] were less than 100 nM and greater than 1000 nM, respectively.

Regarding `C[C@@H]1CN(c2ccc(C(=O)NCc3ccc4c(c3)CN(C3CCC(=O)NC3=O)C4=O)nn2)CCN1CCCCCCCCC(=O)Nc1cccc(Sc2cnc(N3CCC(C)(N)CC3)cn2)c1` (stereo partly drawn) [Compound 252], the DC50 at SHP2 protein [1] and at SHP2 protein [2] was less than 100 nM throughout.

Turning to `CC1(N)CCN(c2cnc(Sc3cccc(NC(=O)CCCCCCCCN4C5C=C(c6ccc(C(=O)NCc7ccc8c(c7)CN(C7CCC(=O)NC7=O)C8=O)nn6)CC4CC5)c3)cn2)CC1` (stereo not drawn) [Compound 219], the 50% degradation concentration (DC50) at SHP2 protein [1] and at SHP2 protein [2] was less than 100 nM throughout.

Take `Cc1ncsc1-c1ccc([C@H](C)NC(=O)[C@@H]2C[C@@H](O)CN2C(=O)[C@@H](NC(=O)c2cnc(N3CCN(CC(=O)Nc4cccc(Sc5cnc(N6CCC(C)(N)CC6)cn5)c4)CC3)nc2)C(C)(C)C)cc1` [Compound 231]: the DC50 at SHP2 protein [1] and on SHP2 protein [2] was greater than 1000 nM each time.

`CCC1(N)CCN(c2cnc(Sc3cccc(NC(=O)CCCCCCCCN4CCC(c5ccc(C(=O)NCc6ccc7c(c6)CN(C6CCC(=O)NC6=O)C7=O)nn5)CC4)c3)cn2)CC1` (stereo not drawn) [Compound 223]: the DC50 on SHP2 protein [1] and at SHP2 protein [2] was less than 100 nM each time.

`CC1(N)CCN(c2cnc(Sc3cccc(NC(=O)CCCCCCN4CC5(CCC(c6ccc(C(=O)NCc7ccc8c(c7)CN(C7CCC(=O)NC7=O)C8=O)nc6)CC5)C4)c3)cn2)CC1` (stereo not drawn) [Compound 216]: the DC50 at SHP2 protein [1] and at SHP2 protein [2] was less than 100 nM in each case.

For the compound `CC1CN(CCCCCCCCC(=O)Nc2cccc(Sc3cnc(N4CCC(C)(N)CC4)cn3)c2)CC=C1c1ccc(C(=O)NCc2ccc3c(c2)CN(C2CCC(=O)NC2=O)C3=O)nc1` (stereo not drawn) [Compound 243], the DC50 on SHP2 protein [1] and at SHP2 protein [2] was less than 100 nM throughout.

As to `CC1(N)CCN(c2cnc(Sc3cccc(NC(=O)c4ccc(N5CCC(N6CC=C(c7ncc(C(=O)NCc8ccc9c(c8)CN(C8CCC(=O)NC8=O)C9=O)cc7Cl)CC6)CC5)cc4)c3)cn2)CC1` (stereo not drawn) [Compound 365], the DC50 is 100 to 1000 nM at SHP2 protein [1] and less than 100 nM on SHP2 protein [2].

On to `CC1(N)CCN(c2cnc(Sc3cccc(NC(=O)CCN4CCN(c5ccc(C(=O)NCc6ccc7c(c6)CN(C6CCC(=O)NC6=O)C7=O)nn5)CC4)c3)cn2)CC1` (stereo not drawn) [Compound 248], for which the DC50 at SHP2 protein [1] and on SHP2 protein [2] was less than 100 nM throughout.
